Test results taken from patent US7205003B2, “Method and topical formulation for treating skin conditions associated with aging” (Dermatrends, Inc., priority 2001, dated 2007).
Like-named read-outs stand apart in the source and are kept apart here.

Tests used:
[1] = cited from earlier work
[2] = cited from earlier work; remark: listed apart in the source
[3] = in vitro keratolysis study: protein released from ground adult foot callus, BioRad protein assay
Experimental: An in vitro keratolysis study was performed to compare the capability of glycolic acid and a base for removing protein from stratum corneum. Adult foot callus was collected, grounded and the portion between 50–80 mesh was used. Glycolic acid and sodium hydroxide solutions (concentration =0.05 M) were prepared in distilled water. Ten mg of ground callus powder was place in a test tube. Four ml of a test chemical was added to the callus and the test tube was placed in a shaker and incubated in a water bath at 37° C. for a predetermined incubation time. The incubation time periods were 10 min., 40 min, 2 hours, 4 hours, 6 hours and 24 hours. Six samples of each base were tested a total of six times each at each of the aforementioned incubation time periods.
At the end of each incubation period, the test tube was removed from the shaker and the test tube was centrifuged. The solution was removed and filtered, and the protein in the solution was then determined using a BioRad® protein assay kit.

[4] = Example 1, 0.05 M, all time points, versus glycolic acid / water control
[5] = Example 2, 0.05 M, 10 minutes, versus glycolic acid, other bases, water control

Compound: CC(N)(CO)CO [2-amino-2-methyl-1,3-propanediol]
- pH of Aqueous Solution ([1]; 0.1 m): 10.8 (0.1 m)

Compound: CC(C)(N)CO [2-amino-2-methyl-1-propanol]
- pH of Aqueous Solution ([1]; 0.1 m): 11.3 (0.1 m)

Compound: N [Ammonium hydroxide]
- pH of Aqueous Solution ([1]; 0.001 N): 10.27
- pH of Aqueous Solution ([1]; 1 N): 11.27

Compound: N.N.O=P(O)(O)O [Ammonium phosphate, dibasic]
- pH of Aqueous Solution ([1]; concentration not given): ~8

Compound: [O]=[Ca] [Calcium oxide]
- solubility in water, in words [2]: Soluble in water, Form Ca(OH)2

Compound: OCCNCCO [Diethanolamine]
- pH of Aqueous Solution ([1]; 0.1 N): 11.0 (0.1 N)

Compound: O=C(O)CO [Glycolic Acid, reference compound]
- protein released, comparison in words [3, 4]: did not show statistical differences in comparison with water
- protein released, comparison in words [3, 5]: did not show significant differences in comparison with water

Compound: [O]=[Mg] [Magnesium oxide]
- pH of Aqueous Solution ([1]; saturated solution in water): 10.3 (saturated aqueous solution)

Compound: [Na+].[OH-] [NaOH, Sodium hydroxide]
- amounts of protein released at 6 hours and 24 hours versus 10 minutes, 40 minutes, 2 hours and 4 hours ([3]; Example 1, 0.05 M): significantly higher
- protein released, comparison in words [3, 4]: released more protein
- protein released, comparison in words [3, 5]: released more protein
- pH of Aqueous Solution ([1]; 0.05%): 12
- pH of Aqueous Solution ([1]; 0.5%): 13
- pH of Aqueous Solution ([1]; 5%): 14

Compound: O=C([O-])CC(O)(CC(=O)[O-])C(=O)[O-].[K+].[K+].[K+] [Potassium citrate]
- pH of Aqueous Solution ([1]; concentration not given): ~8.5

Compound: CC(=O)[O-].[Na+] [Sodium acetate, anhydrous]
- pH of Aqueous Solution ([1]; 0.1 N): ~8.9 (0.1 N)

Compound: O=C([O-])[O-].[Na+].[Na+] [Sodium carbonate anhydrous]
- pH of Aqueous Solution ([1]; concentration not given): ~11.6

Compound: O=P([O-])([O-])O.[Na+].[Na+] [Sodium phosphate, dibasic, anhydrous]
- pH of Aqueous Solution ([1]; 1.0% (1%)): 9.1 (1%)

Compound: O.O.O=P([O-])([O-])O.[Na+].[Na+] [Sodium phosphate, dibasic, dihydrate]
- pH of Aqueous Solution ([1]; concentration not given): ~9.5

Compound: O.O.O.O.O.O.O.O.O.O.O.O.O=P([O-])([O-])O.[Na+].[Na+] [Sodium phosphate, dibasic, dodecahydrate]
- pH of Aqueous Solution ([1]; concentration not given): ~9.5

Compound: O.O.O.O.O.O.O.O=P([O-])([O-])O.[Na+].[Na+] [Sodium phosphate, dibasic, heptahydrate]
- pH of Aqueous Solution ([1]; concentration not given): ~9.5

Compound: O=P([O-])([O-])O.[Na+].[Na+] [Sodium phosphate, dibasic]
- pH of Aqueous Solution ([1]; concentration not given): ~9.5

Compound: O.O.O.O.O.O.O.O.O.O.O.O.O=P([O-])([O-])[O-].[Na+].[Na+].[Na+] [Sodium phosphate, tribasic dodecahydrate]
- pH of Aqueous Solution ([1]; 0.1%): 11.5
- pH of Aqueous Solution ([1]; 0.5%): 11.7
- pH of Aqueous Solution ([1]; 1.0% (1%)): 11.9
